{"source": "patent US20140294849A1", "about": "“COMPOSITIONS AND USES” (GLAXOSMITHKLINE BIOLOGICALS SA, priority 2011, published 2014)", "key": {"Aβ plaques": {"tested_on": "Aβ plaques", "experiment": "Aβ total plaque loading, stereological analysis of brain sections", "type": "in vivo, APPSwe/PS1 mice"}, "[1]": {"tested_on": "Lineage-CD11b+ monocytes in peripheral blood", "experiment": "Monocyte analysis and counting after adjuvant injection in mice", "type": "in vivo, C57BL/6 mice", "experimental": "(§1) 24-Hours after injection of the TLR adjuvants, peripheral blood was drawn from C57BL/6 mice via cardiac puncture with lithium-heparin as anticoagulant. Red blood cell lysis was performed twice on pooled blood with Ammonium Chloride-based Buffer (Sigma, Steinheim, Germany) and cells were counted with the EasyCount™ System (Immunicon). […] Cells were finally washed three times and fixed for 15 min. with a 2% paraformaldehyde solution in PBS. Fluorescence minus one (FMO) controls were always included in the assays for fluorescent compensation setting. Samples were acquired on a flow cytometer (BD FACSCanto II) and data analyzed with the FACSDiva software (BD Biosciences). Monocytes were identified by their Side/Forward scatter properties and gated as CD3-/CD45R/B220-/Ly-6G-/NK1.1-(Lineage-)/CD11b+ cells. CD11b+ monocyte frequency was reported as a percentage of the total cells excluding debris.\nas §1, with “24 hours” for “24-Hours”, “each immunomodulator,” for “the TLR adjuvants,”, “min” for “min.”, “monocytes” for “monocyte”\nCells were finally washed twice and fixed for 15 min. with a 2% paraformaldehyde solution in PBS. FMOs controls were always included in the assays. Samples were acquired on a flow cytometer (BD FACSCanto II) and data analyzed with the FACSDiva software (BD Biosciences). Monocytes were identified and counted by their Side/Forward scatter properties, excluding debris and gated as CD3-/CD45R/B220-/Ly-6G-/NK1.1-(Lineage-)/CD11 b+ cells."}, "[2]": {"tested_on": "spatial learning and memory", "experiment": "T-water maze in APP/PS1 mice", "type": "in vivo, APPSwe/PS1 mice", "conditions": "for behaviour as assessed by T water maze testing: Example 21, twelve weekly injections, vs non treated mice; for cognitive functions, T-water maze: Example 22, vs PBS", "experimental": "Five groups of APPSwe/PS1 mice received one a week for a period of 12 weeks the following treatment: • Gr1: APPSwe/PS1+NaCl 0.9% n(=20), i.p. injections • Gr4: APPSwe/PS1+CRX527 (20 μg/mouse, 130 μl, n=10), i.p. injections • Gr5: […] (50 μg/mouse, 130 μl, n=10), i.p. injections • Gr8 APPSwe/PS1+AS15 ( 1/10th of human dose, 50 μl, n=10), i.m. injections • Gr9: APPSwe/PS1+AS01B ( 1/10th of human dose, 50 μl, n=10), i.m. injections\nMice were tested during the “light on” phase of the day. Behavioral experimenter was blinded to the genetic and treatment status of animals. To assess hippocampal-dependent spatial learning and memory, mice were trained in the T-water maze task. In this paradigm, we evaluate the mouse's ability to remember the spatial location of submerged platform. The T-maze apparatus (length of stem, 64 cm; length of arms, 30 cm; width, 12 cm; height of walls, 16 cm) was made of clear fiberglass and filled with water (23±1° C.) at a height of 12 cm. A platform (11×11 cm) was placed at the end of the target arm and was submerged 1 cm below the surface. The acquisition phase allows to evaluate animals for left-right spatial learning. During the first two trials, platforms were placed on each arms of the maze to test the spontaneous turning preference of the mouse. After these two trials, the least chosen arm was reinforced by the escape platform. The mice were placed in the stem of the T-maze and choose to swim either left or right until they found the submerged platform and escape to it, to a maximum of 60 s. After reaching the platform, the mice remained on it for 20 s and then were immediately placed back in the maze. […] Repeated trials were presented on the same day up to a maximum of 48 trials. A rest period of at least 10-15 min intervened between each block of 10 trials. A mouse was considered to have learned the task when it made no errors in a block of five consecutive trials. The reversal learning phase was then conducted 48 h later. During this phase, the same protocol was repeated, except that the mice were trained to find the escape platform on the opposite side to that on which they had learned on acquisition phase. The number of trials to reach the criterion (five of five correct choices made on consecutive trials) was measured as well as the latency to find the escape platform."}, "[3]": {"tested_on": "cytokines and chemokines in sera", "type": "in vivo, C57BL/6 mice", "conditions": "for levels of TNF-α and IL-6: i.p.", "experimental": "Mice (n=5) received 50 μl of adjuvant formulations by i.m. injection for the PBS, AS03, AS01B and AS04D. PBS or LPS or MPL were injected using the intraperitoneal route and sera were collected at 2 and 6 h time points. Whole blood was collected by cardiac puncture from mice and centrifuged on a vacutainer blood collection tube containing gel for serum separation. Serum samples were cleared by centrifugation and stored at −80° C. until analysis. Protein levels in the cleared sera samples were measured by cytokine-specific beads (Millipore, USA) using the Luminex™ platform.\nTo determine whether the low inflammatory response observed in the previous in vitro experiments can be reproduced in vivo, we measured several cytokines and chemokines in the sera of C57BL/6 mice 2 and 6 h following a single intraperitoneal injection of either MPL or LPS. […] Noteworthy, IL-1β is not increased in response to MPL in contrast to LPS treatment."}, "[4]": {"tested_on": "human microglial cell line CHME", "experiment": "Phagocytosis of beta-amyloid 1-42 peptide by CHME cells", "type": "cell-based", "conditions": "Example 18", "experimental": "Phagocytosis of beta-amyloid 1-42 peptide by the human microglial cell line CHME was observed after the addition of TLR2 agonist containing adjuvants Protollin and Pam3CysLip peptide. […] The synthetic peptide sequence of the Pam3Cys Lip peptide is described herein: Pam3Cys—SQ EPAAPAAEAT PAAEAP. Protollin was used at concentration 1 ug per ml based on the LPS content from Shigella flexneri. Pam3Cys lip peptide was used at concentration of 5 ug per ml of the pure tri-palmitoylated peptide.\nAdditionally, cells were imaged using 42 HiLyte 488 Fluo (Anaspec, Inc.) at 2 ug per ml in DMEM complete media (Invitrogen). Lysotracker red staining was performed and slides were mounted and co-stained with DAPI to show the nucleus (blue). […] Lysotracker red reagent was purchased from Invitrogen and used as manufacturer recommendations."}, "[5]": {"tested_on": "CD11b+ peripheral blood monocytes", "experiment": "Ex vivo uptake assay of Aβ1-42", "type": "cell-based, C57BL/6 mice", "conditions": "Example 19, FIG. 20; QS21 5 μg i.m.", "experimental": "Preparation of cells: Peripheral blood was drawn from C57BL/6 mice via cardiac puncture with lithium-heparin as anticoagulant, 24-hours after injection of the adjuvants used herein. Red blood cell lysis was performed twice on pooled blood with Ammonium Chloride-based Buffer (Sigma, Steinheim, Germany) and cells were counted with the EasyCount™ System (Immunicon). […]\nFACS analysis: cells were harvested after incubation with fluorescent Aβ peptide with Trypsin/EDTA and cold PBS and washed three times. 500,000 cells were incubated in 96-well plate for 10 min. on ice in the presence of Rat anti-Mouse CD16/CD32 (clone 2.4G2—BD Fc Block™) and further stained for 30 min. with a combination of the following directly conjugated antibodies at their pre-determined optimal concentration: PE-Hamster anti-Mouse CD3 (clone 145-2C11), Rat anti-Mouse CD45R/B220 (clone RA3-6B2), Rat anti-Mouse Ly-6G (clone 1A8), Mouse anti-Mouse NK1.1 (clone PK136), APC-conjugated Rat anti-Mouse CD11b (clone M1/70), PE-Cy7-conjugated Hamster anti-Mouse CD11c (clone HL3), (all from BD PharMingen). […]\nSamples were acquired on a flow cytometer (BD FACSCanto II) and data analyzed with the FACSDiva software (BD Biosciences). […]"}}, "note": "Where two headings read alike, the source gives them in different places. No end group written: not given here.", "data": [{"compound": "3-O-desacyl-4′-monophosphoryl lipid A [3D MPL]", "values": [{"measurement": "plaque loading, combined data of Example 21 and 22", "setting": "Aβ plaques; ANOVA-2, P<0.01, intra peritoneal", "value": "statistical significant plaque loading reduction"}, {"measurement": "brain histology of amyloid plaques", "setting": "Aβ plaques; Example 21, FIG. 26, immunofluorescence 6E10", "value": "more compacted plaques with less total area"}, {"measurement": "Amyloid beta plaque number", "setting": "Aβ plaques; Example 21, 50 μg/mouse i.p., once a week for 12 weeks", "value": "statistically significant reduction in Amyloid beta plaque number"}, {"measurement": "Aβ amyloid plaque level in the brain", "setting": "Aβ plaques; Example 22, FIG. 27B, intra peritoneal route", "value": "trend of reducing the Aβ amyloid plaque"}, {"measurement": "number of CD11b+ monocytes compared to the PBS control", "setting": "[1]; Example 9, 5 ug/mouse, i.m.", "value": "about double"}, {"measurement": "monocyte numbers", "setting": "[1]; Example 10, single i.m. injection, at 5 and 25 ug/mouse dose", "value": "stimulate monocyte numbers"}, {"measurement": "T-water tests, combined data of Example 21 and 22", "setting": "[2]; ANOVA-2 tests, FIG. 27C", "value": "statistical significance"}, {"measurement": "behaviour as assessed by T water maze testing", "setting": "[2]", "value": "significant improvements in behaviour"}, {"measurement": "cognitive functions, T-water maze", "setting": "[2]; i.m. 12x weekly, CRX601 2 μg, CRX601 2 ug in AS03, 3D MPL 5 ug, AS01B 1/10 human dose, unpaired t-tests", "value": "significant improvement of their cognitive functions"}, {"measurement": "cognitive functions, T-water maze", "setting": "[2]; intra peritoneal 50 ug per mouse, 12x weekly", "value": "significant improvement of their cognitive functions"}, {"measurement": "levels of TNF-α and IL-6", "setting": "[3]; 2 h post injection", "value": "modest increase"}, {"measurement": "innate cytokine profile", "setting": "[3]; Example 28, 3D MPL i.p., AS01B i.m., data not shown", "value": "attenuated cytokine profile compared to LPS"}, {"measurement": "most of the cytokine and chemokine levels", "setting": "[3]; Example 28, single intraperitoneal injection, 2 and 6 h", "value": "substantially lower than those of LPS-treated animals"}, {"measurement": "levels of TNF-α and IL-6", "setting": "[3]; after 6 h", "value": "essentially abolished"}, {"measurement": "IL-1β", "setting": "[3]; single i.p. injection, in contrast to LPS", "value": "not increased"}]}, {"compound": "CCCCCCCCCCC[C@H](CC(=O)N[C@H]1[C@H](OC[C@H](NC(=O)C[C@@H](CCCCCCCCCCC)OC(=O)CCCCCCCCC)C(=O)O)O[C@H](CO)[C@@H](OP(=O)(O)O)[C@@H]1OC(=O)C[C@@H](CCCCCCCCCCC)OC(=O)CCCCCCCCC)OC(=O)CCCCCCCCC", "note": "[CRX527]", "values": [{"measurement": "behaviour as assessed by T water maze testing", "setting": "[2]", "value": "significant improvements in behaviour"}]}, {"compound": "Pam3Cys—SQ EPAAPAAEAT PAAEAP (Pam3Cys-SQEPAAPAAEATPAAEAP) [Pam3CysLip peptide, TLR2 agonist, tri-palmitoylated peptide]", "values": [{"measurement": "phagocytosis", "setting": "[4]; 5 ug per ml, pre-incubation 18 hrs", "value": "86 % of cells"}, {"measurement": "amyloid phagocytic activity", "setting": "[4]; compared to PBS, Protollin 1 ug per ml, Pam3Cys lip peptide 5 ug per ml", "value": "higher amyloid phagocytic activity"}]}, {"compound": "QS21 [reference compound]", "values": [{"measurement": "Aβ uptake by peripheral blood monocytes", "setting": "[5]", "value": "does not promote Aβ uptake"}, {"measurement": "activated Ly6C+ monocytes", "setting": "[1]; Example 19, single i.m. injection, 24 hrs", "value": 75, "unit": "%"}, {"measurement": "number of monocytes", "setting": "[1]; Example 19, single i.m. injection, after 24 hrs, QS21 5 μg", "value": "9.1 % of total peripheral white blood cells"}]}]}
